Measurements published in ChEMBL document CHEMBL4304829, “PROTAC Degradation of IRAK4 for the Treatment of Cancer” (ACS Med Chem Lett, 2019).

Assays:
Format in all cases: cell-based
[1] = molecular target: T1, Protein cereblon/Interleukin-1 receptor-associated kinase 4 (Homo sapiens) (UniProt Q9NWZ3+Q96SW2); experiment: Protac activity at IRAK4 in human OCl-LY10 cells assessed as increase in E3 ubiquitin ligase mediated IRAK4 degradation at 1 uM incubated for 4 hrs by Western blot analysis relative to control
T1 sequence (Q96SW2 whole entry, looked up): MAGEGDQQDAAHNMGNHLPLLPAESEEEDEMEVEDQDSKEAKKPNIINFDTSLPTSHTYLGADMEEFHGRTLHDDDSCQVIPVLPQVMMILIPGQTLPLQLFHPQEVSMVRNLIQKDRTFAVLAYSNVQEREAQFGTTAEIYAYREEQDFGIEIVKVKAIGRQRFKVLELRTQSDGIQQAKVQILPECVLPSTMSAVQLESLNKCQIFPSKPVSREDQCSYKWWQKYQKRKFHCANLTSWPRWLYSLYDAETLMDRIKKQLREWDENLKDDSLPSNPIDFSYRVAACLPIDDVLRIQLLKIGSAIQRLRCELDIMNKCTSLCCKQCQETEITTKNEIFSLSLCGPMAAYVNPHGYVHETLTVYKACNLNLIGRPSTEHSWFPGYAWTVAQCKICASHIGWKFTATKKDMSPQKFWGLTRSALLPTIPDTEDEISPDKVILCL
T1 sequence (Q9NWZ3 whole entry, looked up): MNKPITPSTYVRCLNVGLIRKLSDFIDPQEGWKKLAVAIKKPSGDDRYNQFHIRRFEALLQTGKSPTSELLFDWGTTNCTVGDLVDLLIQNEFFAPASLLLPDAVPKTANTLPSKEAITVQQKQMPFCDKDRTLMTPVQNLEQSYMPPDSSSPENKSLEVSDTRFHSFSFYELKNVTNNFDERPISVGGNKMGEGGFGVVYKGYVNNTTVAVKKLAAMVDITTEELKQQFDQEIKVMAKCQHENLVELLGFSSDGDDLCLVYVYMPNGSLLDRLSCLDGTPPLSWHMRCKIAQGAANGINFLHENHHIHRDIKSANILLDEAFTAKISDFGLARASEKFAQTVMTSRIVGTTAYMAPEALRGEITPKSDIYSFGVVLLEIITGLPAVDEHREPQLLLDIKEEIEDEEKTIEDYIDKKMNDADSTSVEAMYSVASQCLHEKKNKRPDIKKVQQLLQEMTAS

[2] = molecular target: T1, Protein cereblon/Interleukin-1 receptor-associated kinase 4 (Homo sapiens); experiment: Protac activity at IRAK4 in human OCl-LY10 cells assessed as increase in E3 ubiquitin ligase mediated IRAK4 degradation at 0.01 uM incubated for 4 hrs by Western blot analysis relative to control
[3] = molecular target: T1, Protein cereblon/Interleukin-1 receptor-associated kinase 4 (Homo sapiens); experiment: Protac activity at IRAK4 in human OCl-LY10 cells assessed as increase in E3 ubiquitin ligase mediated IRAK4 degradation at 0.1 uM incubated for 4 hrs by Western blot analysis relative to control

Row | SMILES | Activity [1] [%] | Activity [2] [%] | Activity [3] [%]
1 | O=C1CCC(N2C(=O)c3cccc(NCCNCCOCCNC(=O)c4ccc(-n5cc(NC(=O)c6coc(-c7ccnc(NCC8CC8)c7)n6)c(C(F)(F)F)n5)cc4)c3C2=O)C(=O)N1 (stereo not given) | > 50 | > 50 | > 50
2 | O=C1CCC(n2c(=O)oc3c(CCCOCCOCCNC(=O)c4ccc(-n5cc(NC(=O)c6coc(-c7ccnc(NCC8CC8)c7)n6)c(C(F)F)n5)cc4)cccc32)C(=O)N1 (stereo not given) | > 50 | > 20 | > 50
3 | CN(CCOCCOCCCc1ccc2c(c1)C(=O)N(C1CCC(=O)NC1=O)C2=O)Cc1ccc(-n2cc(NC(=O)c3coc(-c4ccnc(NCC5CC5)c4)n3)c(C(N)=O)n2)cc1 (stereo not given) | > 50 | > 20 | > 50
4 | CN(CCOCCOCCCc1ccc2c(c1)C(=O)N(C1CCC(=O)NC1=O)C2=O)C(=O)c1ccc(-n2cc(NC(=O)c3coc(-c4ccnc(NCC5CC5)c4)n3)c(C(N)=O)n2)cc1 (stereo not given) | > 50 | > 50 | > 50
5 | O=C1CCC(N2C(=O)c3cccc(NC4CCN(CCOCCOCCNC(=O)c5ccc(-n6cc(NC(=O)c7coc(-c8ccnc(NCC(F)(F)F)c8)n7)c(C(F)F)n6)cc5)CC4)c3C2=O)C(=O)N1 (stereo not given) | > 50 | > 50 | > 50
6 | NCc1nn(-c2ccc(C(=O)NCCOCCOCCNc3cccc4c3C(=O)N(C3CCC(=O)NC3=O)C4=O)cc2)cc1NC(=O)c1coc(-c2ccnc(NCC(F)(F)F)c2)n1 (stereo not given) | > 50 | > 50 | > 50
7 | CN(CCOCCCc1cccc2c1C(=O)N(C1CCC(=O)NC1=O)C2=O)Cc1ccc(-n2cc(NC(=O)c3coc(-c4ccnc(NCC5CC5)c4)n3)c(C(N)=O)n2)cc1 (stereo not given) | > 50 | > 20 | > 50
8 | CN(CCOCCOCCCc1ccc2c(c1)C(=O)N(C1CCC(=O)NC1=O)C2=O)Cc1ccc(-n2cc(NC(=O)c3coc(-c4ccncc4)n3)c(C(N)=O)n2)cc1 (stereo not given) | > 50 | > 20 | > 50
9 | NC(=O)c1nn(-c2ccc(CNCC3CN(CCOCCNc4cccc5c4C(=O)N(C4CCC(=O)NC4=O)C5=O)CCO3)cc2)cc1NC(=O)c1coc(-c2ccnc(NCC(F)(F)F)c2)n1 (stereo not given) | > 50 | > 50 | > 50
10 | NC(=O)c1nn(-c2ccc(C(=O)NCC3CCCCN3CCOCCNc3cccc4c3C(=O)N(C3CCC(=O)NC3=O)C4=O)cc2)cc1NC(=O)c1coc(-c2ccnc(NCC(F)(F)F)c2)n1 (stereo not given) | > 50 | > 50 | > 50
